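Growth conditions: 96-well plates. Treatment: test compound, 48 hours, 5 concentrations. Analysis: linear interpolation between bracketing concentrations; unreached endpoints set to highest concentration. Here, GI50 denotes the concentration required for 50% inhibition of growth. TGI: total growth inhibition.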
Assays:
Assay in all cases: DTP human tumour cell line panel, 48 h
MDA-MB-435 = system: MDA-MB-435
IGROV1 ovarian = system: IGROV1 ovarian
OVCAR-4 ovarian = system: OVCAR-4 ovarian
M14 melanoma = system: M14 melanoma
HOP-62 NSCLC = system: HOP-62 NSCLC
HOP-92 NSCLC = system: HOP-92 NSCLC
HL-60(TB) leukemia = system: HL-60(TB) leukemia
OVCAR-8 ovarian = system: OVCAR-8 ovarian
K-562 leukemia = system: K-562 leukemia
HS 578T breast = system: HS 578T breast
NCI-H226 lung = system: NCI-H226 lung
HCT-15 colon = system: HCT-15 colon
TK-10 renal = system: TK-10 renal
KM12 colon = system: KM12 colon
HCC-2998 colon = system: HCC-2998 colon
NCI-H23 lung = system: NCI-H23 lung
DU-145 prostate = system: DU-145 prostate
UACC-257 melanoma = system: UACC-257 melanoma
RPMI-8226 leukemia = system: RPMI-8226 leukemia
SN12C renal = system: SN12C renal
SF-268 CNS = system: SF-268 CNS
U251 CNS = system: U251 CNS
MALME-3M melanoma = system: MALME-3M melanoma
SK-MEL-2 melanoma = system: SK-MEL-2 melanoma
HCT-116 colon = system: HCT-116 colon
SF-295 CNS = system: SF-295 CNS
BT-549 breast = system: BT-549 breast
MOLT-4 leukemia = system: MOLT-4 leukemia
SW-620 colon = system: SW-620 colon
LOX IMVI melanoma = system: LOX IMVI melanoma
SK-MEL-5 melanoma = system: SK-MEL-5 melanoma
ACHN renal = system: ACHN renal
A549 NSCLC = system: A549 NSCLC
NCI-H522 lung = system: NCI-H522 lung
SR leukemia = system: SR leukemia
SNB-19 CNS = system: SNB-19 CNS
RXF 393 renal = system: RXF 393 renal
A498 renal = system: A498 renal
NCI-H460 lung = system: NCI-H460 lung
OVCAR-5 ovarian = system: OVCAR-5 ovarian
NCI/ADR-RES ovarian = system: NCI/ADR-RES ovarian
HT29 colon = system: HT29 colon
SF-539 CNS = system: SF-539 CNS
SNB-75 CNS = system: SNB-75 CNS
UACC-62 melanoma = system: UACC-62 melanoma
CAKI-1 renal = system: CAKI-1 renal
EKVX NSCLC = system: EKVX NSCLC
MCF7 breast = system: MCF7 breast
786-0 renal = system: 786-0 renal
MDA-MB-231 breast = system: MDA-MB-231 breast
SK-OV-3 ovarian = system: SK-OV-3 ovarian
T-47D breast = system: T-47D breast
PC-3 prostate = system: PC-3 prostate
COLO 205 colon = system: COLO 205 colon
CCRF-CEM leukemia = system: CCRF-CEM leukemia
UO-31 renal = system: UO-31 renal
SK-MEL-28 melanoma = system: SK-MEL-28 melanoma

Question: Which results are given for `Cn1ccnc1C(=O)/C=C/c1ccc(CNC(=O)c2ccc(Cl)cc2)cc1`?
Answer: GI50 (MDA-MB-435): 2.73 µM; TGI (MDA-MB-435): 6.37 µM; GI50 (IGROV1 ovarian): 2.62 µM; TGI (IGROV1 ovarian): 7.73 µM; GI50 (OVCAR-4 ovarian): 3.44 µM; TGI (OVCAR-4 ovarian): > 14.3 µM; GI50 (M14 melanoma): 2.78 µM; TGI (M14 melanoma): 7 µM; GI50 (HOP-62 NSCLC): 2.43 µM; TGI (HOP-62 NSCLC): 5.96 µM; GI50 (HOP-92 NSCLC): 3.13 µM; TGI (HOP-92 NSCLC): 12.9 µM; GI50 (HL-60(TB) leukemia): 3.4 µM; TGI (HL-60(TB) leukemia): 11.6 µM; GI50 (OVCAR-8 ovarian): 4.15 µM; TGI (OVCAR-8 ovarian): > 14.3 µM; GI50 (K-562 leukemia): 2.2 µM; TGI (K-562 leukemia): > 14.3 µM; GI50 (HS 578T breast): 4.3 µM; TGI (HS 578T breast): > 14.3 µM; GI50 (NCI-H226 lung): 3.96 µM; TGI (NCI-H226 lung): > 14.3 µM; GI50 (HCT-15 colon): 1.61 µM; TGI (HCT-15 colon): 5.39 µM; GI50 (TK-10 renal): 3.92 µM; TGI (TK-10 renal): 13 µM; GI50 (KM12 colon): 2.13 µM; TGI (KM12 colon): 4.19 µM; GI50 (HCC-2998 colon): 2.26 µM; TGI (HCC-2998 colon): 4.5 µM; GI50 (NCI-H23 lung): 2.68 µM; TGI (NCI-H23 lung): 6.47 µM; GI50 (DU-145 prostate): 2.2 µM; TGI (DU-145 prostate): 4.23 µM; GI50 (UACC-257 melanoma): 3.12 µM; TGI (UACC-257 melanoma): 10.2 µM; GI50 (RPMI-8226 leukemia): 1.82 µM; TGI (RPMI-8226 leukemia): 6.42 µM; GI50 (SN12C renal): 3.29 µM; TGI (SN12C renal): 11.4 µM; GI50 (SF-268 CNS): 2.38 µM; TGI (SF-268 CNS): 6.27 µM; GI50 (U251 CNS): 1.72 µM; TGI (U251 CNS): 4.08 µM; GI50 (MALME-3M melanoma): 2.84 µM; TGI (MALME-3M melanoma): 8.12 µM; GI50 (SK-MEL-2 melanoma): 3.42 µM; TGI (SK-MEL-2 melanoma): 10.8 µM; GI50 (HCT-116 colon): 2.28 µM; TGI (HCT-116 colon): 5.05 µM; GI50 (SF-295 CNS): 2.63 µM; TGI (SF-295 CNS): 6.51 µM; GI50 (BT-549 breast): 2.23 µM; TGI (BT-549 breast): 4.65 µM; GI50 (MOLT-4 leukemia): 3.82 µM; TGI (MOLT-4 leukemia): 12.4 µM; GI50 (SW-620 colon): 2.55 µM; TGI (SW-620 colon): 5.88 µM; GI50 (LOX IMVI melanoma): 0.962 µM; TGI (LOX IMVI melanoma): 2.96 µM; GI50 (SK-MEL-5 melanoma): 4.98 µM; TGI (SK-MEL-5 melanoma): > 14.3 µM; GI50 (ACHN renal): 2.98 µM; TGI (ACHN renal): 7.42 µM; GI50 (A549 NSCLC): 3.6 µM; TGI (A549 NSCLC): > 14.3 µM; GI50 (NCI-H522 lung): 2.47 µM; TGI (NCI-H522 lung): 4.83 µM; GI50 (SR leukemia): 0.626 µM; TGI (SR leukemia): > 14.3 µM; GI50 (SNB-19 CNS): 2.15 µM; TGI (SNB-19 CNS): 5.37 µM; GI50 (RXF 393 renal): 2.07 µM; TGI (RXF 393 renal): 4.56 µM; GI50 (A498 renal): 2.18 µM; TGI (A498 renal): 4.17 µM; GI50 (NCI-H460 lung): 2.61 µM; TGI (NCI-H460 lung): 6.31 µM; GI50 (OVCAR-5 ovarian): 2.52 µM; TGI (OVCAR-5 ovarian): 5.73 µM; GI50 (NCI/ADR-RES ovarian): 4.03 µM; TGI (NCI/ADR-RES ovarian): > 14.3 µM; GI50 (HT29 colon): 2.39 µM; TGI (HT29 colon): 5.13 µM; GI50 (SF-539 CNS): 2.06 µM; TGI (SF-539 CNS): 4.12 µM; GI50 (SNB-75 CNS): 2.41 µM; TGI (SNB-75 CNS): 10.3 µM; GI50 (UACC-62 melanoma): 2.41 µM; TGI (UACC-62 melanoma): 5.1 µM; GI50 (CAKI-1 renal): 3.34 µM; TGI (CAKI-1 renal): > 14.3 µM; GI50 (EKVX NSCLC): 3.71 µM; TGI (EKVX NSCLC): > 14.3 µM; GI50 (MCF7 breast): 1.75 µM; TGI (MCF7 breast): 6.3 µM; GI50 (786-0 renal): 2.58 µM; TGI (786-0 renal): 5.76 µM; GI50 (MDA-MB-231 breast): 3.36 µM; TGI (MDA-MB-231 breast): 14.2 µM; GI50 (SK-OV-3 ovarian): 5.05 µM; TGI (SK-OV-3 ovarian): > 14.3 µM; GI50 (T-47D breast): 3 µM; TGI (T-47D breast): > 14.3 µM; GI50 (PC-3 prostate): 2.8 µM; TGI (PC-3 prostate): 7.18 µM; GI50 (COLO 205 colon): 2.45 µM; TGI (COLO 205 colon): 6.05 µM; GI50 (CCRF-CEM leukemia): 3.38 µM; TGI (CCRF-CEM leukemia): > 14.3 µM; GI50 (UO-31 renal): 1.84 µM; TGI (UO-31 renal): 3.74 µM; GI50 (SK-MEL-28 melanoma): 2.53 µM; TGI (SK-MEL-28 melanoma): 5.31 µM

From PubChem BioAssay (NCI)
